Assay results reported in the NIST ThermoML archive (doi:10.1021/acs.jced.5b01007).
Numbers after ± are expanded uncertainties.

Conditions: Fluid (supercritical or subcritical phases), Frequency=8 MHz, Pulse-echo method

O=O [oxygen]
Conditions	speed of sound [m/s]
299.96 K, 14860 kPa	352.65 ± 0.38
299.97 K, 9920 kPa	340.22 ± 0.38
299.97 K, 20050 kPa	370.99 ± 1.6
299.97 K, 25030 kPa	392.82 ± 1.9
299.97 K, 29960 kPa	417.33 ± 2.1
299.97 K, 34960 kPa	443.87 ± 2.2
299.97 K, 39960 kPa	471.2 ± 2.2
299.97 K, 45030 kPa	498.92 ± 2.2
299.97 K, 50010 kPa	525.82 ± 2.2
299.97 K, 55140 kPa	552.86 ± 2.1
299.97 K, 60160 kPa	578.47 ± 2.1
299.97 K, 64960 kPa	602.28 ± 2
299.97 K, 69690 kPa	624.95 ± 2
300 K, 74030 kPa	645.07 ± 1.9
349.98 K, 8030 kPa	367.01 ± 0.39
349.98 K, 29990 kPa	433.29 ± 1.6
349.98 K, 49900 kPa	518.73 ± 1.8
349.98 K, 78850 kPa	641.85 ± 1.7
349.99 K, 10070 kPa	370.9 ± 0.39
349.99 K, 14980 kPa	382.53 ± 0.4
349.99 K, 19640 kPa	396.03 ± 0.4
349.99 K, 24980 kPa	414.2 ± 1.5
349.99 K, 35080 kPa	454.09 ± 1.7
349.99 K, 45020 kPa	497.15 ± 1.8
349.99 K, 55110 kPa	541.66 ± 1.8
349.99 K, 59910 kPa	562.59 ± 1.8
349.99 K, 68690 kPa	600.07 ± 1.7
350.03 K, 40050 kPa	475.39 ± 1.8
350.03 K, 64930 kPa	584.11 ± 1.8
399.05 K, 83180 kPa	648.15 ± 1.5
399.06 K, 19900 kPa	421.58 ± 0.42
399.07 K, 74590 kPa	617.2 ± 1.6
399.07 K, 79990 kPa	636.78 ± 1.5
399.08 K, 34890 kPa	469.6 ± 1.5
399.08 K, 39970 kPa	487.82 ± 1.5
399.08 K, 44980 kPa	506.29 ± 1.6
399.08 K, 54970 kPa	543.88 ± 1.6
399.08 K, 60070 kPa	563.14 ± 1.6
399.08 K, 64900 kPa	581.28 ± 1.6
399.08 K, 70100 kPa	600.65 ± 1.6
399.09 K, 4960 kPa	388.03 ± 0.4
399.09 K, 6020 kPa	389.77 ± 0.4
399.09 K, 7950 kPa	393.26 ± 0.4
399.09 K, 25010 kPa	436.72 ± 1.3
399.09 K, 29900 kPa	452.47 ± 1.4
399.09 K, 50090 kPa	525.43 ± 1.6
399.1 K, 15010 kPa	408.72 ± 0.41
399.11 K, 9980 kPa	397.34 ± 0.4
449.79 K, 87520 kPa	660.32 ± 1.4
449.87 K, 80010 kPa	636.12 ± 1.4
449.88 K, 75270 kPa	620.61 ± 1.4
449.88 K, 85020 kPa	652.33 ± 1.4
449.89 K, 65180 kPa	587.16 ± 1.4
449.89 K, 70120 kPa	603.58 ± 1.4
449.9 K, 55090 kPa	553.54 ± 1.4
449.9 K, 60070 kPa	570.12 ± 1.4
449.93 K, 35030 kPa	488.6 ± 1.3
449.93 K, 40050 kPa	504.35 ± 1.4
449.94 K, 6010 kPa	414.33 ± 0.41
449.94 K, 9970 kPa	422.01 ± 0.41
449.94 K, 15000 kPa	433.26 ± 0.42
449.94 K, 20010 kPa	445.6 ± 1.1
449.94 K, 24940 kPa	458.85 ± 1.2
449.94 K, 30000 kPa	473.4 ± 1.3
449.94 K, 45090 kPa	520.58 ± 1.4
449.94 K, 49910 kPa	536.52 ± 1.4
449.95 K, 8010 kPa	418.16 ± 0.41
449.95 K, 88050 kPa	662.01 ± 1.4
498.83 K, 69940 kPa	610.55 ± 1.3
498.89 K, 60010 kPa	580.54 ± 1.3
498.89 K, 65000 kPa	595.63 ± 1.3
498.9 K, 95000 kPa	684.96 ± 1.3
498.91 K, 74960 kPa	625.69 ± 1.3
498.91 K, 90000 kPa	670.28 ± 1.3
498.91 K, 100060 kPa	699.53 ± 1.3
498.92 K, 79990 kPa	640.74 ± 1.3
498.93 K, 84890 kPa	655.27 ± 1.3
498.94 K, 10000 kPa	444.64 ± 0.43
498.99 K, 40010 kPa	521.13 ± 1.2
499 K, 29910 kPa	492.81 ± 1.2
499 K, 34730 kPa	506.11 ± 1.2
499 K, 44900 kPa	535.41 ± 1.3
499.01 K, 24900 kPa	479.52 ± 1.1
499.02 K, 14940 kPa	455.31 ± 0.43
499.03 K, 4920 kPa	434.71 ± 0.42
499.03 K, 5910 kPa	436.52 ± 0.42
499.03 K, 7820 kPa	440.23 ± 0.42
499.03 K, 49930 kPa	550.29 ± 1.3
499.03 K, 54810 kPa	564.89 ± 1.3
499.04 K, 20070 kPa	467.39 ± 1.1
